Experimental data from US20240116990A1, “Compositions and Methods of Treatment Using CRRL 191” (Mayo Foundation for Medical Education and Research, priority 2022, published 2024).
Bridge positions count the residues as written; N and C are the ends.

What was measured:
[1] = test system: Spontaneously Hypertensive Rats (SHR); assay: Blood pressure in spontaneously hypertensive rats during infusion and washout; type: in vivo, rat; conditions: 100 pmol/kg and 300 pmol/kg doses
Experimental: All rat experiments are conducted following the Animal Welfare Act and the protocol is approved by the Mayo Clinic Institutional Animal Care and Use Committee (IACUC). […] Rats are included only if they are deemed healthy by the Institutional Veterinarian Department. Investigators who conduct the in vivo study are not blinded to treatments, but biochemical analysis is performed by a different investigator who is blinded to treatment.
On the day of the experiment, SHR rats are anesthetized with inactin (120 mg/kg, intraperitoneal injection, Sigma, St. Louis, MO). Rats are then kept on a heating pad at 38° C. to maintain a normal body temperature for the entire study. Vascular and bladder cannulation procedures are conducted. Briefly, a polyethylene-50 (PE-50) tube catheter is placed into one jugular vein for peptide infusion and another PE-50 tube is placed into the carotid artery for blood pressure (BP) monitoring (Sonometrics, London, Ontario, Canada) and blood sampling. After instrumentation, a 15-minute equilibrium period follows, and a 30-minute pre-infusion period is performed to collect baseline urine samples.
Four blood samples are collected to determine circulating cGMP levels: at baseline, before the end of drug infusion, at the middle of the washout clearance period, and before the end of the washout clearance period. Any blood loss in the rats is replaced with an equal volume of saline. BP is monitored and recorded every 15 minutes beginning after the initiation of peptide infusion. All collected blood are stored at −80° C. until assayed.

physchem = conditions: water
[2] = test system: Human cardiomyocytes (HCM); assay: Human cardiomyocyte real-time apoptosis analysis (staurosporine-induced, Caspase-3/7 imaging); type: cell-based; conditions: 0.05 μM staurosporine, 90 hours, FIG. 6
Experimental: HCM cells are seeded in 96-well plate at approximately 80% confluency. Cells are treated with various concentrations of staurosporine (SP) to induce apoptosis. Based on the dose response curve, 0.05 μM of SP is selected to induce apoptosis in HCM.
Plates are then transferred to a time-lapsed, live imaging system IncuCyte S3 (Essen BioScience, Ann Arbor, MI) for apoptosis monitoring every 2 hours for a total of 90 hours. All treatment groups are performed in quintuplicates and repeated twice. Images are collected using the IncuCyte S3 Live-Cell Analysis System Software (Essen Bioscience, Ann Arbor, MI), and the data are analyzed for the Green Object Area of apoptotic bodies per well.

[3] = test system: Human cardiomyocytes (HCM); assay: Human cardiomyocyte (HCM) cGMP analysis; type: cell-based
Experimental: Human cardiomyocytes (HCM) are purchased from ScienCell (Catalog #6200) and maintained in Cardiac Myocyte Medium (Cat #6101, ScienCell) containing 10% FBS. An in vitro cGMP assay is performed. Briefly, HCM cells are seeded in 6-well plates and cultured overnight to 80-90% confluency. The treatment buffer used in all experiments comprises Hank's Balanced Salt Solution (HBSS), 0.1% BSA, 2 mM HEPES, and 0.5 mM 3-isobutyl-1-methylxanthine (IBMX, a non-specific phosphodiesterase inhibitor) (Sigma, St. Louis, MO). […] For the negative control, HCM are incubated in treatment buffer (vehicle) only. After treatment for 10 minutes, all cells are washed with phosphate buffered solution (PBS) once, lysed with 0.1 M HCl, and sonicated for 10 min.

[4] = molecular target: T1, extracellular domain of GC-A recombinant protein (Homo sapiens, UniProt P16066); assay: GC-A binding by surface plasmon resonance (SPR); conditions: SPR binding curves, FIG. 7
T1 construct: The extracellular domain of GC-A recombinant protein with a C-terminal His-tag (MyBioSource, Inc., San Diego, CA); purchased MyBioSource, Inc., San Diego, CA
T1 sequence (P16066 33-473 limits assumed): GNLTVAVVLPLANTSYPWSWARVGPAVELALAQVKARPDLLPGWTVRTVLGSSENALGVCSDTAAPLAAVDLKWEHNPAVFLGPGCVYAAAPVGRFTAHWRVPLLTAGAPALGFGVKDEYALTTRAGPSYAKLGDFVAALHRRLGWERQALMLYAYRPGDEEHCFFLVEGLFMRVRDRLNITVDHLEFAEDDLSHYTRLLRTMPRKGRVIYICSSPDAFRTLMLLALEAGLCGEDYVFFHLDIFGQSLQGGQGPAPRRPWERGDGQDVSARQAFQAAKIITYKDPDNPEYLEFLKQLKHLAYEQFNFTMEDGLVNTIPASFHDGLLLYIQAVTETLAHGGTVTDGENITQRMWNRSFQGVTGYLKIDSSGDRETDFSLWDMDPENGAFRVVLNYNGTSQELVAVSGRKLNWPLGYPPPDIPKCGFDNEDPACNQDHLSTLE
Experimental: Surface plasmon resonance (SPR) measurements are performed at 25° C. on a BI-4500 SPR instrument (Biosensing Instrument Inc., Tempe, AZ). The extracellular domain of GC-A recombinant protein with a C-terminal His-tag (MyBioSource, Inc., San Diego, CA) is immobilized onto a Ni-NTA sensor chip (Biosensing Instrument Inc., Tempe, AZ) using 400 μM nickel sulfate in de-iron water as linker, as instructed by the instrument manual. Then, 40 μg/ml of recombinant GC-A is immobilized on the Ni-NTA sensor chip. […] Data are collected as sensorgrams. Binding kinetics are calculated from sensorgrams using the BI-Data Analysis Program (Biosensing Instrument, Tempe, AZ).

Q: With “H-RALLTAPRSLRRSSCFGHKIDRINHVSNLGCNSFRYRITAREDKQGWA-OH (disulfide 15-31) [CRRL 191]” as the substance, how does the “lowering systolic blood pressure compared to ANP” value ([1]; iv infusion, FIG. 8A) read?
A: more effective at lowering

Q: What about the “lowering diastolic blood pressure compared to ANP” value ([1]; iv infusion, FIG. 8B) of the same substance?
A: more effective at lowering

Q: And the “lowering mean arterial blood pressure compared to ANP” value ([1]; iv infusion, FIG. 8C)?
A: more effective at lowering

Q: What about the “duration of blood pressure effect after peptide administration compared to ANP” value ([1]; washout) of the same substance?
A: more sustained effect over time

Q: What about the solubility (physchem) of the same substance?
A: ≥ 1000 µg/mL

Q: And the “cardiomyocyte apoptosis induced by SP” value ([2]; 10^−6 M)?
A: greatest effect on reducing cardiomyocyte apoptosis

Q: What about the “cardiomyocyte apoptosis induced by SP” value ([2]; 10^−8 M) of the same substance?
A: reduced cardiomyocyte apoptosis

Q: And the “cardiomyocyte apoptosis induced by SP” value ([2]; 10^−10 M)?
A: reduced cardiomyocyte apoptosis

Q: And the “cGMP production compared to MANP or CRRL 101” value ([3]; 10^−9 M to 10^−6 M, FIG. 5)?
A: great levels of cGMP production than MANP or CRRL 101

Q: And the “cGMP production compared to ANP” value ([3]; 10^−10 M to 10^−6 M, 10 min, FIG. 4)?
A: greater cGMP production than ANP

Q: What about the “binding for the GC-A receptor compared to ANP and MANP” value [4] of the same substance?
A: greater binding
